Laboratory results from patent US5332726A, “Antithrombotic peptides and pseudopeptides” (Rhone-Poulenc Rorer Pharmaceuticals Inc., priority 1992, dated 1994).
Non-standard residues stand in square brackets, D forms with d. Residues, ends and D or L forms follow the SMILES beside them. NMeD = CN[C@@H](CC(=O)O)C(=O)O; Orn = NCCC[C@H](N)C(=O)O; Sar = CNCC(=O)O

Legend:
[1] = target: fixed activated platelets (Homo sapiens, UniProt P05106+P08514); assay: Platelet Aggregation Assay (fibrinogen-mediated aggregation of fixed-activated platelets); type: cell-based; conditions: for IC50: fixed activated platelets, human fibrinogen 250 μg/ml, read-out: Inhibition of Fibrinogen Mediated Platelet Aggregation IC50; for inhibition at 100 µM: read-out: Inhibition of Fibrinogen Mediated Platelet Aggregation % inhibition at 100 μM; for inhibition at 25 µM: read-out: Inhibition of Fibrinogen Mediated Platelet Aggregation % inhibition at 25 μM
fixed activated platelets, sequence (P08514 32-1039): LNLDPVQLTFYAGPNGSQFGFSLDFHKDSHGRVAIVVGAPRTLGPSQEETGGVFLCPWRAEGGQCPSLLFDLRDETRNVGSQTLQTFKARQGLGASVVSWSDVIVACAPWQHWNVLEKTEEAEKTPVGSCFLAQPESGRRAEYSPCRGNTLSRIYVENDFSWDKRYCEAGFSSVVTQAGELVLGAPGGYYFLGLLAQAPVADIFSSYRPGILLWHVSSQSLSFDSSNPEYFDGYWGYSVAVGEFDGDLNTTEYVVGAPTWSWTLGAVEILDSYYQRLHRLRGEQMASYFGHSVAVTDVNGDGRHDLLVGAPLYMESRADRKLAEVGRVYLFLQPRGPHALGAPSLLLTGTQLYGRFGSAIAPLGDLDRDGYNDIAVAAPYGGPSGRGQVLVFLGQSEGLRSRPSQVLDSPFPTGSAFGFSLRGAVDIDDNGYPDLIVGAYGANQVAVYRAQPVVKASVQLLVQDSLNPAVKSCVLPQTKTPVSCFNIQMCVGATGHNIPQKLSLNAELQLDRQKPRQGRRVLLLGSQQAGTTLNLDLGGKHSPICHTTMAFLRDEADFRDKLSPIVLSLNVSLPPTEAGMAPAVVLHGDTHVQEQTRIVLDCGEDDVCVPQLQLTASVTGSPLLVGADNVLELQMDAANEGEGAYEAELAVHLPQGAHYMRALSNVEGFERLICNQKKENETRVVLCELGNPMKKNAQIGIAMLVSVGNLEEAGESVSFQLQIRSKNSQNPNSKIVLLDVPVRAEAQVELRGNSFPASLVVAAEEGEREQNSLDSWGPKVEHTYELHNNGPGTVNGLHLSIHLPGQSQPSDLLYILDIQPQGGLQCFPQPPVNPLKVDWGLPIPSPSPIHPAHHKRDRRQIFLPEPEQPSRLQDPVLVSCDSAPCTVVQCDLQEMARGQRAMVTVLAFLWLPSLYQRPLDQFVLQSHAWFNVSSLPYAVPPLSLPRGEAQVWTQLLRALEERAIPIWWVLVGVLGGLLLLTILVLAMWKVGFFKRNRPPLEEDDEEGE
fixed activated platelets, sequence (P05106 27-788): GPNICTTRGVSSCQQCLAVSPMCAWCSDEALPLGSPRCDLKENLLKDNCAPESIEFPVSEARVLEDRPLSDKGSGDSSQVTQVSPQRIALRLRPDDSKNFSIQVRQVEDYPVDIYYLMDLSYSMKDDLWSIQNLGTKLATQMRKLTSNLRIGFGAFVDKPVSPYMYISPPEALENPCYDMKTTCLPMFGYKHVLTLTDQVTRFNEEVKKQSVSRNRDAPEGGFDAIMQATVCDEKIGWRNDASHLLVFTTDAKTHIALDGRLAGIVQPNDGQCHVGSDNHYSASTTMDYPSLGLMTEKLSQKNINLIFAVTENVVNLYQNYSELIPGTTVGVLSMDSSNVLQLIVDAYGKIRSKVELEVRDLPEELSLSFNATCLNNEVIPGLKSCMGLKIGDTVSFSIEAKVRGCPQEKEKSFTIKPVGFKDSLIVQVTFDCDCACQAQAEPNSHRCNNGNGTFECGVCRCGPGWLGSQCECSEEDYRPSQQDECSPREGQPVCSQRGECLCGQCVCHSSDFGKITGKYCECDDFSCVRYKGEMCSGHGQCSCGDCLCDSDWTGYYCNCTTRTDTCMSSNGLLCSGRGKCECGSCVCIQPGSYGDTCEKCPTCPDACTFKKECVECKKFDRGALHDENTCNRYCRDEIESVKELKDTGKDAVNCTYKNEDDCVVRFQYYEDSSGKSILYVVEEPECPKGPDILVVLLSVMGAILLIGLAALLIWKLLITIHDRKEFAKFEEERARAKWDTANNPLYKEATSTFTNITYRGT
Description: PLATELET AGGREGATION ASSAY
Preparation of Fixed-Activated Platelets
To the activated platelets is added paraformaldehyde to a final concentration of 0.50% and this incubated at room temperature for 30 minutes. The fixed activated platelets are then collected by centrifugation at 650×g for 15 minutes.
Platelet Aggregation Assay
The fixed activated platelets are incubated with a selected dose of the compound to be tested for platelet aggregation inhibition for one minute and aggregation initiated by addition of human fibrinogen to a final concentration of 250 μg/ml. A platelet aggregation profiler Model PAP-4 is used to record the platelet aggregation.

[2] = target: thrombin-stimulated platelets (Homo sapiens, UniProt P05106+P08514); assay: Fibrinogen-Binding Assay (125I-fibrinogen binding to platelets); conditions: 125I-fibrinogen 0.176 μmol/liter, thrombin-stimulated platelets; read-out: Inhibition of 125I-Fibrinogen Binding to Platelets IC50
thrombin-stimulated platelets, sequence (P08514 32-1039): as the sequence (P08514 32-1039) above
thrombin-stimulated platelets, sequence (P05106 27-788): as the sequence (P05106 27-788) above
Description: Platelets are washed free of plasma constituents by the albumin density-gradient technique of Walsh, P. N., et al., Br. J. Haematol. […] After these additions, the final platelet count in the mixture is 1×10^11 /liter. After incubation for an additional 30 minutes at 22°-25° C., bound and free ligand are separated by centrifuging 50 μl of the mixture through 300 μl of 20% sucrose at 12,000×g for 4 minutes. The platelet pellet is then separated from the rest of the mixture to determine platelet-bound radioactivity. Nonspecific binding is measured in mixtures containing an excess of unlabeled ligand. […] The IC50 is derived by plotting residual fibrinogen binding against the logarithm of the sample compound's concentration.

SMILES | IC50 [1] [nM] | inhibition at 100 µM [1] [%] | IC50 [2] [nM] | inhibition at 25 µM [1] [%]
CC(C)[C@H](NC(=O)[C@H](CC(=O)O)NC(=O)CN(C)C(=O)[C@@H](N)CCCNC(=N)N)C(=O)O [L-arginylsarcosyl-L-aspartyl-L-valine] (H-R[Sar]DV-OH) | 14000 | 92 | 14000 | –
CC(C)[C@H](NC(=O)[C@H](CC(=O)O)NC(=O)CN(Cc1ccccc1)C(=O)CCCCCNC(=N)N)C(=O)O [6-Guanidinohexanoyl-N-benzylglycyl-L-aspartyl-L-valine] | 5700 | – | 840 | 85
N=C(N)NCCCCCCCCC(=O)N[C@@H](CC(=O)O)C(=O)N[C@@H](CCCNC(=N)N)C(=O)N[C@@H](CCCNC(=N)N)C(=O)O [9-Guanidinononanoyl-L-aspartyl-L-arginyl-L-arginine] | 15000 | – | 15000 | 68
N=C(N)NCCCCC(=O)NCC(=O)N[C@@H](CC(=O)O)C(=O)NCCc1ccccc1 [N-(5-guanidinopentanoyl)glycyl-L-aspartylphenethylamide] | 2100 | 86 | 20000 | –
CCCCOC(=O)C[C@H](NC(=O)CN(C)C(=O)CCCCCNC(=N)N)C(=O)N[C@H](C(=O)O)C(C)C [6-Guanidinohexanoyl-sarcosyl-L-aspartyl-β-butylester-L-valine] | > 25000 | – | – | 18
CC(C)C[C@@H](CCCNC(=N)N)NC(=O)[C@H](CC(=O)O)NC(=O)CCCCCCCCNC(=N)N [(R)-4-[N-(9-Guanidinononanoyl-L-aspartyl)-amino]-4-isobutylbutylguanidine] | – | – | – | 94
CC(C)[C@H](NC(=O)[C@H](CC(=O)O)NC(=O)CCCCCCCCCCCNC(=N)N)C(=O)O [12-Guanidinododecanoyl-L-aspartyl-L-valine] | – | – | 7000 | 36
N=C(N)NCCCCCCCC(=O)N[C@@H](CC(=O)O)C(=O)NCCCCNC(=N)N [8-Guanidinooctanoyl-L-aspartyl-(des-carboxy)-L-arginine] | 1900 | – | 990 | 91
CCN(CC(=O)N[C@@H](CC(=O)O)C(=O)N[C@@H](CCCNC(=N)N)C(=O)O)C(=O)CCCCNC(=N)N [5-guanidino-N-(ethyl)-glycyl-L-aspartyl-L-arginine] | 230 | – | 1900 | 93
CC(C)[C@H](NC(=O)[C@H](CC(=O)O)NC(=O)CNC(=O)CCCCCn1ccnc1)C(=O)O [6-(Imidazol-1-yl)-hexanoyl-glycyl-L-aspartyl L-valine] | 17000 | – | 2800 | 67
CCN(CC(=O)N[C@@H](CC(=O)O)C(=O)N[C@H](C(=O)O)C(C)C)C(=O)CCCCCn1ccnc1C [6-(2-Methylimidazol-1-yl)hexanoyl-N-(ethyl)-glycyl-L-aspartyl-L-valine] | 1900 | – | 350 | 93
CCN(CC(=O)N[C@@H](CC(=O)O)C(=O)N[C@H](C(=O)O)C(C)C)C(=O)CCCCCn1ccnc1 [6-(Imidazol-1-yl)-hexanoyl-N-ethylglycyl-L-aspartyl-L-valine] | 1000 | – | 900 | 95
N=C(N)NCCCCCCCC(=O)NCC(=O)NCC(=O)O [8-Guanidinooctanoyl-glycyl-glycine] | – | – | – | 12
CC(C)[C@H](NC(=O)[C@H](CC(=O)O)NC(=O)CN(C)C(=O)CCCCCn1ccnc1)C(=O)O [6-(Imidazol-1-yl)-hexanoylsarcosyl-L-aspartyl] | – | – | – | 94
CC(C)C[C@H](NC(=O)[C@H](CC(=O)O)NC(=O)CCCCCCCCNC(=N)N)C(=O)N[C@@H](CCCNC(=N)N)C(=O)O [9-Guanidinononanoyl-L-aspartyl-L-leucyl-L-arginine] | 520 | – | – | 96
COC(=O)[C@](CCCNC(=N)N)(CC(C)C)NC(=O)[C@H](CC(=O)O)NC(=O)CCCCCCCCNC(=N)N [9-Guanidinononanoyl-L-aspartyl-(S)-α-isobutyl-arginine methylester] | > 25000 | – | – | 0
CC(C)[C@H](NC(=O)[C@H](CC(=O)O)NC(=O)CCCCCCCNC(=N)N)c1nnn[nH]1 [8-Guanidinooctanoyl-L-aspartyl-L-valine-5-tetrazole] | > 25000 | – | – | 32
COC(=O)[C@H](CCCNC(=N)N)NC(=O)[C@H](CC(=O)O)NC(=O)CCCCCCCCNC(=N)N [9-Guanidinononanoyl-L-aspartyl-L-arginine methylester] | 1700 | – | – | 91

SMILES | IC50 [1] [nM] | inhibition at 100 µM [1] [%] | IC50 [2] [nM] | inhibition at 25 µM [1] [%]
CC[C@@H](C)[C@H](CC(=O)NCCCCNC(=N)N)NC(=O)[C@H](CC(=O)O)NC(=O)CCCCCCCCNC(=N)N [9-Guanidinononanoyl-L-aspartyl-D-β-homoiso-leucyl-(des-carboxy)-L-arginine] | 3300 | – | – | 94
CC[C@H](C)[C@H](NC(=O)[C@@H](NC(=O)[C@H](CC(=O)O)NC(=O)CCCCCCCCNC(=N)N)[C@@H](C)CC)C(=O)O [9-Guanidinononanoyl-L-aspartyl-L-isoleucyl-L-isoleucine] | > 25000 | – | – | 45
CC(C)(C)[C@H](NC(=O)[C@H](CC(=O)O)NC(=O)CCCCCCCCNC(=N)N)C(=O)N[C@@H](CCCNC(=N)N)C(=O)O [9-Guanidinononanoyl-L-aspartyl-L-t-butylglycyl-L-arginine] | 1500 | – | – | 96
CC(C)CC(CCCN)(NC(=O)[C@H](CC(=O)O)NC(=O)CCCCCCCCNC(=N)N)C(=O)O (stereo partly drawn) [9-Guanidinononanoyl-L-aspartyl-(R,S)-α-isobutylornithine] | > 25000 | – | – | 4
CCC(C)C[C@H](NC(=O)[C@H](CC(=O)O)NC(=O)CCCCCCCCNC(=N)N)C(=O)N[C@@H](CCCNC(=N)N)C(=O)O (stereo partly drawn) [9-Guanidinononanoyl-L-aspartyl-homo-L-isoleucyl-L-arginine] | – | – | – | 94
Cc1nccn1CCCCCCCCC(=O)N[C@@H](CC(=O)O)C(=O)N[C@H](C(=O)O)C(C)C | – | – | – | 74
C[C@H](NC(=O)[C@H](CC(=O)O)NC(=O)CCCCCCCCNC(=N)N)C(=O)N[C@@H](CCCNC(=N)N)C(=O)O [9-Guanidinononanoyl-L-aspartyl-L-alanyl-L-arginine] | 540 | – | – | 89
CC[C@H](C)[C@@H](CN[C@@H](CCCNC(=N)N)C(=O)O)NC(=O)[C@H](CC(=O)O)NC(=O)CCCCCCCCNC(=N)N [9-Guanidinononanoyl-L-aspartyl-β-homo-L-isoleucyl psi(CH2 NH)-L-arginine] | – | – | – | 38
CC(C)[C@H](NC(=O)[C@H](CC(=O)O)N(C)C(=O)CNC(=O)[C@@H](N)CCCNC(=N)N)C(=O)O [L-arginyl-glycyl-L-N-methylaspartyl-L-valine] (H-RG[NMeD]V-OH) | > 64000 | – | – | –
N=C(N)NCCC[C@H](N)C(=O)NCC(=O)N[C@@H](CC(=O)O)C(=O)NCC(=O)O [L-arginylglycyl-L-aspartyl glycine] (H-RGDG-OH) | 14300 | 91 | – | –
CC(C)[C@H](NC(=O)[C@@H](N)CCCNC(=O)[C@@H](N)CCCNC(=N)N)C(=O)O [N-δ-(L-arginyl)-L-ornithyl-L-valine] (H-[Orn](Arg)-Val-OH) | – | 20 | – | –
CCC(C)C[C@@H](NC(=O)[C@H](CC(=O)O)NC(=O)CCCCCCCCNC(=N)N)C(=O)N[C@@H](CCCNC(=N)N)C(=O)O (stereo partly drawn) [9-Guanidinononanoyl-L-aspartyl-D-homoisoleucyl-L-arginine] | – | – | – | 98
CC(C)[C@H](NC(=O)[C@H](CC(=O)O)NC(=O)CCCCCCCCNC(=N)N)C(=O)N[C@@H](CCCNC(=N)N)C(=O)O [9-Guanidinononanoyl-L-aspartyl-L-valine-L-arginine] | 220 | – | – | 98
CC(C)C[C@@H](CCC(=O)N[C@@H](CCCNC(=N)N)C(=O)O)NC(=O)[C@H](CC(=O)O)NC(=O)CCCCCCCCNC(=N)N [N-[N-(9-Guanidinononanoyl-L-aspartyl)-(R)-4-amino-4-isobutylbutyryl]-L-arginine] | – | – | 2100 | –
CCC(C)[C@H](CCCNC(=N)N)NC(=O)[C@H](CC(=O)O)NC(=O)CCCCCCCCNC(=N)N (stereo partly drawn) [9-Guanidinononanoyl-L-aspartyl-((S)-4-amino-4-sec-butylbutyl)guanidine] | – | – | – | 76
CCC(C)C(CNC(=O)[C@H](CC(=O)O)NC(=O)CCCCCCCCNC(=N)N)C(=O)N[C@@H](CCCNC(=N)N)C(=O)O (stereo partly drawn) [N-(9-Guanidinononanoyl-L-aspartyl)-3-amino-2-sec-butyl propionic acid L-arginine amide] | – | – | – | 89
CCCCOC(=O)[C@@H](NC(=O)[C@H](CC(=O)O)NC(=O)CN(C)C(=O)CCCCCNC(=N)N)C(C)C [6-Guanidinohexanoyl-sarcosyl-L-aspartyl-L-valine-butylester] | 4500 | – | – | 90
CC(C)[C@H](NC(=O)[C@H](CC(=O)O)NC(=O)CCCCNC(=N)N)C(=O)O [5-guanidinovaleroyl-L-aspartyl-L-valine] | – | – | – | 28
